Experimental data reported in US8497279B2, “Treatment for discoid lupus” (Rigel Pharmaceuticals, Inc., priority 2011, dated 2013).
Where a name gives a salt, the structure may show the parent alone.

Tests used:
[1] = system: JAK/Stat pathway; test: U937 IFNγ ICAM1 FACS assay; format: cell-based, human; settings: U937 cells, IFNγ 10 ng/mL, 18-24 hours, ICAM-1 expression; read-out: Example 6 IC50
Method: U937 human monocytic cells up-regulate ICAM-1 (CD54) surface expression in response to a variety of different stimuli. Therefore, using ICAM-1 expression as readout, compound effects on different signaling pathways can be assessed in the same cell type. IFNγ up-regulates ICAM-1 through activation of the JAK/Stat pathway. In this example, the up-regulation of ICAM-1 by IFNγ was assessed.
U937 cells were grown in 10% RPMI. The cells were then plated at a concentration of 100,000 cells per 160 μL in 96 well flat bottom plates. […] Then 4 μL of test compound was transferred to 76 μL of 10% RPMI resulting in a 10× solution (100 μM test compound, 5% DMSO). For control wells, 4 μL of DMSO was diluted into 76 μL 10% RPMI.
The assay was performed in duplicate with 8 points (8 3-fold dilution concentrations from […]) and with 4 wells of DMSO only (control wells) under stimulated conditions and 4 wells of DMSO only under unstimulated conditions.
The diluted compound plate was mixed 2× using a multimek (Beckman Coulter of Brea, Calif.) and then 20 μL of the diluted compounds was transferred to the 96 well plate containing 160 μL of cells, which were then mixed again twice at low speeds. The cells and compounds were then pre-incubated for 30 minutes at 37° C. with 5% CO2.
The 10× stimulation mix was made by preparing a 100 ng/mL solution of human IFNγ in 10% RPMI. […] The cells were kept under conditions for stimulation for 18-24 hours at 37° C. with 5% CO2.
The cells were transferred to a 96 well round bottom plate for staining and then kept on ice for the duration of the staining procedure. Cells were spun down at 1000 rpm for 5 minutes at 4° C., following which the supernatant was removed. Following removal of the supernatant, 1 μL APC conjugated mouse anti-human ICAM-1 antibody was added per 100 μL FACS buffer. The cells were then incubated on ice in the dark for 30 minutes. Following incubation, 150 μL of FACS buffer was added and the cells were centrifuged at 1000 rpm for 5 minutes at 4° C., following which the supernatant was removed. […]
Both % live cells and ICAM-1 expression was analyzed. […]

[2] = system: primary human T-cells; test: Primary human T-cell proliferation assay stimulated with IL-2 (CellTiter-Glo); format: cell-based; settings: primary human T-cells, IL-2, 72 hours, ATP readout; read-out: Example 4 IC50
Excerpt: In this assay, primary human T-cells derived from peripheral blood and pre-activated through stimulation of the T-cell receptor and CD28, proliferate in culture in response to the cytokine Interleukin-2 (IL-2). This proliferative response is dependent on the activation of JAK1 and JAK3 tyrosine kinases, which phosphorylate and activate the transcription factor Stat-5. […] A reduction in cell proliferation compared to control conditions is indicative of inhibition of the JAK kinase pathway. An exemplary assay of this type is described in greater detail below.
Primary human T-cells derived from peripheral blood and pre-activated through stimulation of the T-cell receptor and CD28, proliferate in vitro in response to the cytokine Interleukin-2 (IL-2). This proliferative response is dependent on the activation of JAK-1 and JAK-3 tyrosine kinases, which phosphorylate and activate the transcription factor Stat-5.
Human primary T cells were prepared as follows. […] The lymphocytes at the serum: ficoll interface were recovered and washed twice with 5 volumes of PBS. […] The primary T-cells were stimulated for 3-4 days, then transferred to a fresh flask and maintained in RPMI with 10% FBS and 40 U/mL IL-2.
Primary T-cells were washed twice with PBS to remove the IL-2 and resuspended in Yssel's medium at 2×10^6 cells/mL. 50 μL of cell suspension containing 80 U/mL IL-2 was added to each well of a flat bottom 96 well black plate. For the unstimulated control, IL-2 was omitted from the last column on the plate. […] 50 μL of 2× compound was added per well in duplicate and the cells were allowed to proliferate for 72 hours at 37° C.
Proliferation was measured using CellTiter-Glo® Luminescent Cell Viability Assay (Promega), which determines the number of viable cells in culture based on quantitation of the ATP present, as an indicator of metabolically active cells. The substrate was thawed and allowed to come to room temperature. After mixing the Cell Titer-Glo reagent and diluent together, 100 μL was added to each well. […]

C#CCOc1ccc(Nc2nc(Nc3ccc(C)c(S(=O)(=O)NC(=O)CC)c3)ncc2F)cc1 [VI, 5-Fluoro-N2-[4-methyl-3-(N-propionylaminosulfonyl)phenyl]-N4-[4-(2-propynyloxy)phenyl]-2,4-pyrimidinediamine Arginine Salt]
IC50 [1]: 424 nM
IC50 [2]: 262 nM
